Experiments:
Assay in all cases: KINOMEscan competition binding
Conditions in all cases: compound 1.0 µM
ACVR2B (human) = ACVR2B (human) (UniProt Q13705)
AURKC (human) = AURKC (human) (UniProt Q9UQB9)
BLK (human) = BLK (human) (UniProt P51451)
CASK (human) = CASK (human) (UniProt O14936)
CDK19 (human) = CDK19 (human) (UniProt Q9BWU1)
CDKL2 (human) = CDKL2 (human) (UniProt Q92772)
CHEK1 (human) = CHEK1 (human) (UniProt O14757)
CHEK2 (human) = CHEK2 (human) (UniProt O96017)
CSNK1E (human) = CSNK1E (human) (UniProt P49674)
DAPK2 (human) = DAPK2 (human) (UniProt Q9UIK4)
DYRK1A (human) = DYRK1A (human) (UniProt Q13627)
EGFR (human) = EGFR (human) (UniProt P00533)
[1] = tested on: EGFR (human), P00533 [L858R]
[2] = tested on: EGFR (human), P00533 [L861Q]
[3] = tested on: EGFR (human), P00533 [P753S; 747-752 del]
FGFR2 (human) = FGFR2 (human) (UniProt P21802)
[4] = tested on: FGFR3 (human), P22607 [G697C]
LYN (human) = LYN (human) (UniProt P07948)
MAP3K13 (human) = MAP3K13 (human) (UniProt O43283)
MAP3K13 (human), sequence (O43283 whole entry, looked up): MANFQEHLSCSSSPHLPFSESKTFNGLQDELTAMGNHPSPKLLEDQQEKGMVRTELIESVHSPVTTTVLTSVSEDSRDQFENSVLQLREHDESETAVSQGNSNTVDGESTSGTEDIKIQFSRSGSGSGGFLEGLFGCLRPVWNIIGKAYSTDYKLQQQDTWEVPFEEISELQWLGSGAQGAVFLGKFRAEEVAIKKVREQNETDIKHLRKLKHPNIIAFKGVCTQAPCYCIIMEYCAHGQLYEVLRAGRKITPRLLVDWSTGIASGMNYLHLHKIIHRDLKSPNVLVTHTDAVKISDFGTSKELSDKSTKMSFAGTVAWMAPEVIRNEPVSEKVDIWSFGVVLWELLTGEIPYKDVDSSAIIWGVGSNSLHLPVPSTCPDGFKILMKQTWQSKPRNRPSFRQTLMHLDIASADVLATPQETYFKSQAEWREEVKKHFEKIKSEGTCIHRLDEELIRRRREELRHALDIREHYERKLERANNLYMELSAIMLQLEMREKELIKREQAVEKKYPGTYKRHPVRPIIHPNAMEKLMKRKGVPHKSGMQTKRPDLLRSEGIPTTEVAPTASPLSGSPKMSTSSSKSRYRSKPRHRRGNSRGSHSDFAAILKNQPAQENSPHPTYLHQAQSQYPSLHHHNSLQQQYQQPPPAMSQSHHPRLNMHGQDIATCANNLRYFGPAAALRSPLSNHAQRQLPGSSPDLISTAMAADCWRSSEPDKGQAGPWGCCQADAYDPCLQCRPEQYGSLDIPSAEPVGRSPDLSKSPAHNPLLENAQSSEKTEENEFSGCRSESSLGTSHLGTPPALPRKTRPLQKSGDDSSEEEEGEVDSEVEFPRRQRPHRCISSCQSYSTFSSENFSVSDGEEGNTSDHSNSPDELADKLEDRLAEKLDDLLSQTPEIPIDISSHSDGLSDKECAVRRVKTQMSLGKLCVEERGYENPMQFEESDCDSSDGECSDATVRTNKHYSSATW

MAP4K2 (human) = MAP4K2 (human) (UniProt Q12851)
MAPK4 (human) = MAPK4 (human) (UniProt P31152)
MELK (human) = MELK (human) (UniProt Q14680)
MET (human) = MET (human) (UniProt P08581)
MST4 (human) = MST4 (human) (UniProt Q9P289)
NEK5 (human) = NEK5 (human) (UniProt Q6P3R8)
NTRK3 (human) = NTRK3 (human) (UniProt Q16288)
NTRK3 (human), sequence (Q16288 whole entry, looked up): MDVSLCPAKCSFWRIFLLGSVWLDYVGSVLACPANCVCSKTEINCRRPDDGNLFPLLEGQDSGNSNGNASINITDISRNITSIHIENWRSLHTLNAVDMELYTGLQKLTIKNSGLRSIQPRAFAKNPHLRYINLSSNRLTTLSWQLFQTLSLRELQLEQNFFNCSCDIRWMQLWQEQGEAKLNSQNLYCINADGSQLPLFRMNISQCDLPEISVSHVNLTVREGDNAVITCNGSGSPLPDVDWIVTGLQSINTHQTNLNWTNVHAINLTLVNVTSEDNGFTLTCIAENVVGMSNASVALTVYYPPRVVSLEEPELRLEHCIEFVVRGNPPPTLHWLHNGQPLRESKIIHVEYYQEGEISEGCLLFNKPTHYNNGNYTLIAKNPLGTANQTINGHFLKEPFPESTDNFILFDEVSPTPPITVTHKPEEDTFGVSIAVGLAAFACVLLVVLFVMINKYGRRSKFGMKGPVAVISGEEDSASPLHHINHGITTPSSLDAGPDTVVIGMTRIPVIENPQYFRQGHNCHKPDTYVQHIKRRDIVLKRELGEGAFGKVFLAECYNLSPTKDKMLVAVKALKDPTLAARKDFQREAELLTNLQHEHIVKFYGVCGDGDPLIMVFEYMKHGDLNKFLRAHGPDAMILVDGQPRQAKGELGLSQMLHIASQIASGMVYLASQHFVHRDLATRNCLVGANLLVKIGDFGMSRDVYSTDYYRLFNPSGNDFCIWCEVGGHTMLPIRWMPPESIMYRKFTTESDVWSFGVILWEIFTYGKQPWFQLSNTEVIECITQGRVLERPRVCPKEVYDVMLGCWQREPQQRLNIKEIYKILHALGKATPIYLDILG

NUAK2 (human) = NUAK2 (human) (UniProt Q9H093)
NUAK2 (human), sequence (Q9H093 whole entry, looked up): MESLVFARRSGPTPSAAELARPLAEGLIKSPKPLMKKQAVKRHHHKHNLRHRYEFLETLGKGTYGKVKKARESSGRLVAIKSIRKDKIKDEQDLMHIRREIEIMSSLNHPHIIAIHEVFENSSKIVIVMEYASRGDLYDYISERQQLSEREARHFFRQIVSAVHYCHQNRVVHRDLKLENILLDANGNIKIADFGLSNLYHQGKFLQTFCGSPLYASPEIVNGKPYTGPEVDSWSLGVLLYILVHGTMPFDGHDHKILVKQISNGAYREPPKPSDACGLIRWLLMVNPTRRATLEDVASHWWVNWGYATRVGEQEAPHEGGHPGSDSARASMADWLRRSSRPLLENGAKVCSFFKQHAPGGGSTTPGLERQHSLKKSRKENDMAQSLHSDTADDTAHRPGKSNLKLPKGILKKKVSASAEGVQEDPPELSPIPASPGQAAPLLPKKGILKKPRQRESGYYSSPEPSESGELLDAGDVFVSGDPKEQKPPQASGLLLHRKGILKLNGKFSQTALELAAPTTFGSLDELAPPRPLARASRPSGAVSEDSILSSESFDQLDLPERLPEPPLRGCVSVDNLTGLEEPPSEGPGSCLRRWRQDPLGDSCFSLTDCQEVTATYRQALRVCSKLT

PHKG1 (human) = PHKG1 (human) (UniProt Q16816)
PI4KB (human) = PI4KB (human) (UniProt Q9UBF8)
PIP5K1C (human) = PIP5K1C (human) (UniProt O60331)
PRKACB (human) = PRKACB (human) (UniProt P22694)
ROCK1 (human) = ROCK1 (human) (UniProt Q13464)
ROCK1 (human), sequence (Q13464 whole entry, looked up): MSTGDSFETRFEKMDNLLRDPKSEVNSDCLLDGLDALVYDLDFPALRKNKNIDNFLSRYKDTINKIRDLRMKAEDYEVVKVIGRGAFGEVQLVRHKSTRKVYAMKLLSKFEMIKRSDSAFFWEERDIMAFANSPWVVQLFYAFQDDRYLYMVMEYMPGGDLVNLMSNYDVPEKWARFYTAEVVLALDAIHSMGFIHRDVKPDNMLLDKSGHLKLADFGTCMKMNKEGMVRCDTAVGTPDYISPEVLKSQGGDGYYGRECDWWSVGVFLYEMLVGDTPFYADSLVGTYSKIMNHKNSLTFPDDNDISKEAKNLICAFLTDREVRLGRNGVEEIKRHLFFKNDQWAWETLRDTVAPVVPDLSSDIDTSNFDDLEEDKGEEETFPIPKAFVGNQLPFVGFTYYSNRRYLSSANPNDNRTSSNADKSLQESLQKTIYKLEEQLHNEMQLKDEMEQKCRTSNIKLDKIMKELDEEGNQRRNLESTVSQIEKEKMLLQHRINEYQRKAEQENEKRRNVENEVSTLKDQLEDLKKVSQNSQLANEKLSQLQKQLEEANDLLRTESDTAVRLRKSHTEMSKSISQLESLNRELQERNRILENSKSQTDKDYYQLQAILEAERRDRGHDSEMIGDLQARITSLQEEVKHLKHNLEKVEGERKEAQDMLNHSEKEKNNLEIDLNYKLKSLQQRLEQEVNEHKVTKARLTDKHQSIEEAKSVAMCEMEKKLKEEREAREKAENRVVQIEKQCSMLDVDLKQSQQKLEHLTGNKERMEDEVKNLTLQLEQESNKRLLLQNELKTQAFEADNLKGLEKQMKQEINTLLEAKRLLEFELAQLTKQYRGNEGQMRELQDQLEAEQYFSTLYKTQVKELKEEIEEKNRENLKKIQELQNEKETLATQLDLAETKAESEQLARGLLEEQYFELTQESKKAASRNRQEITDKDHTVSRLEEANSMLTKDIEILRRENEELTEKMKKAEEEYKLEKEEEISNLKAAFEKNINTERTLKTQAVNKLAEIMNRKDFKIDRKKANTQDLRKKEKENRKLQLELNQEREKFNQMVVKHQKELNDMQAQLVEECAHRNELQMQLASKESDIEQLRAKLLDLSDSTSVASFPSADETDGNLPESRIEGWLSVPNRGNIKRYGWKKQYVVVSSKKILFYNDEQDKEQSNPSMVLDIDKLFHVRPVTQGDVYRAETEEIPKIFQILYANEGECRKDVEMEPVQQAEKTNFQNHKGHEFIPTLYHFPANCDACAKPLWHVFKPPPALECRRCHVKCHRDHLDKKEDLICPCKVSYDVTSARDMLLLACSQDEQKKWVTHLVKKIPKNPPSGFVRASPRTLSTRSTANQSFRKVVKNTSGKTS

RPS6KA4 KD2 (human) = RPS6KA4 KD2 (human) (UniProt O75676)
RPS6KA6 KD1 (human) = RPS6KA6 KD1 (human) (UniProt Q9UK32)
STK16 (human) = STK16 (human) (UniProt O75716)
SYK (human) = SYK (human) (UniProt P43405)
TGFBR2 (human) = TGFBR2 (human) (UniProt P37173)
TNNI3K (human) = TNNI3K (human) (UniProt Q59H18)
TSSK1B (human) = TSSK1B (human) (UniProt Q9BXA7)

CHEK2 (human), sequence (O96017 whole entry, looked up): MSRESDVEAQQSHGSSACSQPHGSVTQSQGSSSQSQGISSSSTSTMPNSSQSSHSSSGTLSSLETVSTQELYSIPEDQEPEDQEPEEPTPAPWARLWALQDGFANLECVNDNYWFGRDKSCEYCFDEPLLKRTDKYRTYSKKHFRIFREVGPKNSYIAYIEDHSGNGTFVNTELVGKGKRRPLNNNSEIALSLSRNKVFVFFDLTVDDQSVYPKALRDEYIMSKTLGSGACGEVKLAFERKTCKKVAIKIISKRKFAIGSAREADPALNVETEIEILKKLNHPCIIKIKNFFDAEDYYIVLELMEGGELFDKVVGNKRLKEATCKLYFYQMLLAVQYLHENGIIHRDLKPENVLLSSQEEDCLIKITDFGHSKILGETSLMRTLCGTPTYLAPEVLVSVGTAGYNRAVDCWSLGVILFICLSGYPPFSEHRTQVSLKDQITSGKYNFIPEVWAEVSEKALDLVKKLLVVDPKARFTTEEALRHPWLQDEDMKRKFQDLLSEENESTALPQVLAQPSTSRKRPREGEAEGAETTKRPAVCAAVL
CHEK1 (human), sequence (O14757 whole entry, looked up): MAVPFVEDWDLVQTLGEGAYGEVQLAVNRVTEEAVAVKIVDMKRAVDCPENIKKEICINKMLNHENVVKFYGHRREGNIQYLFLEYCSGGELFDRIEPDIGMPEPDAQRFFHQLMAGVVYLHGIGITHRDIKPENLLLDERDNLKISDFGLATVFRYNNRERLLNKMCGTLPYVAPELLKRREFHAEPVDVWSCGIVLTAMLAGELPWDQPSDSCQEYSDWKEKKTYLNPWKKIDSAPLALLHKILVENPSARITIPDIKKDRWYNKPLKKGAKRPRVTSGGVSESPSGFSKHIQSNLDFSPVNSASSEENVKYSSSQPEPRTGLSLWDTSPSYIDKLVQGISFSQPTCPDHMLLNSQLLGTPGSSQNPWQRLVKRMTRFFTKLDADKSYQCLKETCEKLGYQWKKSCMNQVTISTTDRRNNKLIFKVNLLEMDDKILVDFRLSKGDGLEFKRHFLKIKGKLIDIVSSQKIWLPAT

Compound `CNc1nc(Nc2ccc(C(=O)N3CCOCC3)cc2OC)ncc1Cl` has a kinase still bound, per cent of control (ACVR2B (human)) of 65%, a kinase still bound, per cent of control (AURKC (human)) of 88% and a kinase still bound, per cent of control (BLK (human)) of 100%. The kinase still bound, per cent of control (CASK (human)) was 97%, the residual activity (CDK19 (human)) was 100% and the residual activity (CDKL2 (human)) was 100%. For the same compound, the kinase still bound, per cent of control (CHEK1 (human)) was 100%, the kinase still bound, per cent of control (CHEK2 (human)) was 26% and the kinase still bound, per cent of control (CSNK1E (human)) was 100%. It also gave a kinase still bound, per cent of control (DAPK2 (human)) of 66%, a kinase still bound, per cent of control (DYRK1A (human)) of 100% and a kinase still bound, per cent of control (EGFR (human)) of 100%. For the same compound, the kinase still bound, per cent of control [1] was 100%, the kinase still bound, per cent of control [2] was 100% and the kinase still bound, per cent of control [3] was 89%. The kinase still bound, per cent of control (FGFR2 (human)) was 100%, the kinase still bound, per cent of control [4] was 100% and the kinase still bound, per cent of control (LYN (human)) was 100%. The kinase still bound, per cent of control (MAP3K13 (human)) was 100%, the kinase still bound, per cent of control (MAP4K2 (human)) was 100% and the kinase still bound, per cent of control (MAPK4 (human)) was 100%. The kinase still bound, per cent of control (MELK (human)) was 100%, the kinase still bound, per cent of control (MET (human)) was 100% and the kinase still bound, per cent of control (MST4 (human)) was 100%. It also gave a kinase still bound, per cent of control (NEK5 (human)) of 100%, a kinase still bound, per cent of control (NTRK3 (human)) of 100% and a kinase still bound, per cent of control (NUAK2 (human)) of 100%. The kinase still bound, per cent of control (PHKG1 (human)) was 76%, the kinase still bound, per cent of control (PI4KB (human)) was 100% and the kinase still bound, per cent of control (PIP5K1C (human)) was 99%. It also gave a residual activity (PRKACB (human)) of 84%, a kinase still bound, per cent of control (ROCK1 (human)) of 100% and a kinase still bound, per cent of control (RPS6KA4 KD2 (human)) of 23%. The kinase still bound, per cent of control (RPS6KA6 KD1 (human)) was 100%, the kinase still bound, per cent of control (STK16 (human)) was 100% and the kinase still bound, per cent of control (SYK (human)) was 100%. It also gave a kinase still bound, per cent of control (TGFBR2 (human)) of 100%, a kinase still bound, per cent of control (TNNI3K (human)) of 54% and a kinase still bound, per cent of control (TSSK1B (human)) of 100%.

Reference: the kinase profiling compilation of Christmann-Franck et al. (2016)
